Data on ten molecules can be found in ChEMBL document CHEMBL1201862, “PubChem BioAssay data set” (2004).

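Briefly, cells in 96-well plates were exposed to five compound concentrations for 48 h, and endpoints were estimated by linear interpolation. GI50 = concentration required for 50% inhibition of growth.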 Calls of active or inactive are those of the source. No stated cut-off is given here; in the data, active = GI50 up to about 1.1 µM and inactive = higher.

Test systems include BT-549; CAKI-1; DU-145; HT-29; MDA-MB-231; Malme-3M; NCI-H23; NCI-H460; NCI/ADR-RES; OVCAR-3; OVCAR-4; SF-268; SF-295; SK-MEL-28; SK-MEL-2; SK-MEL-5; SNB-75; SR; TK-10; UACC-62.
Common to all, as to test: NCI-60 cell line screen, 48 h

Regarding `O=C1Nc2ccc(Br)cc2/C1=N/Nc1ccccc1[N+](=O)[O-]`, the GI50 in the experiment with BT-549 is 30.7 µM (inactive); with CAKI-1, 14.2 µM (inactive); in the experiment on DU-145 it was 12.2 µM (inactive); in the experiment on HT-29 it was 13.8 µM (inactive); with MDA-MB-231, 1.92 µM (inactive); in the experiment with Malme-3M, 13.6 µM (inactive). The GI50 is 3.56 µM (inactive) in the experiment with NCI-H23; 9.73 µM (inactive) in the experiment on NCI-H460; 15.8 µM (inactive) in the experiment with NCI/ADR-RES; 10.7 µM (inactive) with OVCAR-3; 14.4 µM (inactive) with OVCAR-4; 20.2 µM (inactive) in the experiment on SF-268. Also, the GI50 is 14 µM (inactive) in the experiment on SF-295; 19.7 µM (inactive) in the experiment with SK-MEL-28; 25.2 µM (inactive) with SK-MEL-2; 8.63 µM (inactive) with SK-MEL-5; 15.8 µM (inactive) in the experiment on SNB-75; 10.2 µM (inactive) in the experiment with SR. For the same molecule, the GI50 in the experiment on TK-10 is 10.3 µM (inactive); in the experiment on UACC-62, 22.2 µM (inactive).
Take `C[C@H]1C2Cc3cc(N)ccc3[C@@]1(C)CCN2CCc1ccccc1`: the GI50 was > 100 µM (inactive) in the experiment on BT-549; 64.4 µM (inactive) in the experiment with CAKI-1; > 100 µM (inactive) with DU-145; 6.49 µM (inactive) with HT-29; > 100 µM (inactive) with MDA-MB-231; 17.7 µM (inactive) in the experiment on Malme-3M. The GI50 with NCI-H23 was 32.8 µM (inactive); in the experiment on NCI-H460, 33.1 µM (inactive); in the experiment on NCI/ADR-RES, 42.3 µM (inactive); in the experiment on OVCAR-3, 15.9 µM (inactive); with OVCAR-4, 48.2 µM (inactive); in the experiment on SF-268, 76 µM (inactive). The GI50 was 27.4 µM (inactive) with SF-295; > 100 µM (inactive) with SK-MEL-28; 50.7 µM (inactive) in the experiment with SK-MEL-2; 18.3 µM (inactive) with SK-MEL-5; 85.1 µM (inactive) with SNB-75; 19.3 µM (inactive) with SR. Further, the figures for the GI50 in the experiment on TK-10 and in the experiment on UACC-62 were 78 µM (inactive) and 45.5 µM (inactive), respectively.
On to `C/C(=N\Nc1nc2cccnc2s1)c1ccccn1`, for which the GI50 in the experiment with BT-549 is 0.117 µM (active); with CAKI-1 it was < 0.0105 µM (active); in the experiment on DU-145, 0.316 µM (active); in the experiment on HT-29, < 0.01 µM (active); in the experiment on MDA-MB-231, < 0.01 µM (active); with Malme-3M, < 0.01 µM (active). Further, the GI50 in the experiment with NCI-H23 was 0.0228 µM (active); in the experiment with NCI-H460 it was 0.0369 µM (active); in the experiment on NCI/ADR-RES it was < 0.01 µM (active); in the experiment on OVCAR-3, < 0.0169 µM (active); in the experiment with OVCAR-4, 1.07 µM (active); in the experiment on SF-268 it was 0.0284 µM (active). Besides, the GI50 was 0.288 µM (active) in the experiment with SF-295; 0.364 µM (active) with SK-MEL-28; 2.98 µM (inactive) in the experiment with SK-MEL-2; 0.033 µM (active) with SK-MEL-5; 0.451 µM (active) in the experiment on SNB-75; 0.0335 µM (active) in the experiment on SR. For the same molecule, the GI50 with UACC-62 was 0.0586 µM (active).
In the case of `Nc1nc(N)c(CCCCc2ccc([N+](=O)[O-])cc2)c(N)n1`, the GI50 was > 100 µM (inactive) in the experiment with BT-549; > 96.6 µM (inactive) in the experiment on CAKI-1; 76 µM (inactive) with DU-145; 7.67 µM (inactive) with HT-29; > 100 µM (inactive) with MDA-MB-231; 41.9 µM (inactive) with Malme-3M. In addition, the GI50 was 10.6 µM (inactive) with NCI-H23; 5.68 µM (inactive) in the experiment on NCI-H460; > 100 µM (inactive) in the experiment on NCI/ADR-RES; > 100 µM (inactive) with OVCAR-3; > 100 µM (inactive) in the experiment with OVCAR-4; > 50.4 µM (inactive) with SF-268. In addition, the GI50 with SF-295 was 17.1 µM (inactive); with SK-MEL-2 it was > 100 µM (inactive); in the experiment on SK-MEL-5, 16.7 µM (inactive); in the experiment on SNB-75, > 100 µM (inactive); with SR, 10.6 µM (inactive); in the experiment on TK-10 it was > 100 µM (inactive). In addition, the GI50 in the experiment with UACC-62 was 8.67 µM (inactive).
Take `CN/C(=N\N)NS(=O)(=O)c1cc(C)c(Cl)cc1S`: the GI50 in the experiment with BT-549 was 38.5 µM (inactive); in the experiment with CAKI-1 it was 45.8 µM (inactive); in the experiment with DU-145, > 100 µM (inactive); with HT-29, 40.4 µM (inactive); with MDA-MB-231 it was > 100 µM (inactive); with Malme-3M, 46.8 µM (inactive). In addition, the GI50 in the experiment with NCI/ADR-RES was > 100 µM (inactive); with OVCAR-3, 57.5 µM (inactive); with OVCAR-4, > 100 µM (inactive); with SF-268 it was > 100 µM (inactive); in the experiment with SK-MEL-28 it was > 100 µM (inactive); in the experiment on SK-MEL-2 it was 69.2 µM (inactive). Moreover, the GI50 is 30.7 µM (inactive) in the experiment with SK-MEL-5; > 100 µM (inactive) in the experiment with SNB-75; 44 µM (inactive) in the experiment with SR; 77.4 µM (inactive) with TK-10; 53.7 µM (inactive) in the experiment with UACC-62.
Consider `COc1cc(Oc2nc3ccccc3nc2C(=O)O)cc(OC)c1OC`, for which the GI50 in the experiment with BT-549, in the experiment on CAKI-1, in the experiment with DU-145, in the experiment with HT-29, in the experiment on MDA-MB-231 and with Malme-3M was > 100 µM (inactive) throughout. Further, the GI50 in the experiment with NCI-H23, with NCI-H460, in the experiment on NCI/ADR-RES, in the experiment on OVCAR-3, in the experiment on OVCAR-4 and in the experiment on SF-268 was > 100 µM (inactive) throughout. The GI50 in the experiment with SF-295, in the experiment on SK-MEL-28, in the experiment with SK-MEL-2, with SK-MEL-5, with SNB-75 and with SR was > 100 µM (inactive) each time. Further, the GI50 in the experiment with TK-10 and in the experiment on UACC-62 was > 100 µM (inactive) throughout.
Turning to `COc1ccc(CNC2=N/C(=C\c3ccccc3Cl)C(=O)N2C)cc1`, the GI50 in the experiment with BT-549 is 36.8 µM (inactive); with CAKI-1, 30.7 µM (inactive); in the experiment on DU-145 it was 27.7 µM (inactive); in the experiment on HT-29, 22.9 µM (inactive); with MDA-MB-231, 26.4 µM (inactive); in the experiment with Malme-3M, 33 µM (inactive). Besides, the GI50 in the experiment with NCI-H460 was 30.1 µM (inactive); in the experiment with NCI/ADR-RES, 28 µM (inactive); in the experiment with OVCAR-3 it was 22.8 µM (inactive); in the experiment with OVCAR-4, 23.9 µM (inactive); with SF-268 it was 45 µM (inactive); in the experiment with SF-295, 31.7 µM (inactive). Also, the GI50 in the experiment with SK-MEL-28 is 33 µM (inactive); in the experiment with SK-MEL-2, 19.3 µM (inactive); in the experiment on SK-MEL-5, 19.9 µM (inactive); with SNB-75 it was 11.8 µM (inactive); in the experiment with SR, 25.2 µM (inactive); with TK-10 it was 37.7 µM (inactive). The GI50 with UACC-62 was 17.5 µM (inactive).
For `Cc1cc(S(=O)(=O)NC2=Nc3cccc4cccc(c34)N2)c(S)cc1Cl`, the GI50 is > 100 µM (inactive) in the experiment on BT-549; > 100 µM (inactive) in the experiment on CAKI-1; > 100 µM (inactive) in the experiment on DU-145; > 100 µM (inactive) in the experiment on MDA-MB-231; > 100 µM (inactive) with Malme-3M; 55.6 µM (inactive) in the experiment with NCI-H460. Further, the GI50 with NCI/ADR-RES is > 100 µM (inactive); in the experiment with OVCAR-3, 53.7 µM (inactive); in the experiment with OVCAR-4 it was 85.9 µM (inactive); with SF-268, > 100 µM (inactive); with SF-295, 39.5 µM (inactive); in the experiment with SK-MEL-28, > 100 µM (inactive). Further, the GI50 in the experiment with SK-MEL-2 was > 100 µM (inactive); in the experiment with SK-MEL-5, 60.5 µM (inactive); in the experiment with SNB-75 it was > 100 µM (inactive); in the experiment with SR, 60 µM (inactive); in the experiment with UACC-62 it was > 100 µM (inactive).
In the case of `Oc1ccccc1/C=N/c1ccc(-c2nc3ccccc3[nH]2)cc1`, the GI50 with BT-549 is 12.8 µM (inactive); with CAKI-1, > 100 µM (inactive); in the experiment with DU-145 it was 65.8 µM (inactive); with HT-29, 81.8 µM (inactive); in the experiment on MDA-MB-231, 40.5 µM (inactive); in the experiment on Malme-3M, 93.3 µM (inactive). The GI50 was 50.5 µM (inactive) with NCI-H23; 54.8 µM (inactive) in the experiment on NCI-H460; 4.53 µM (inactive) in the experiment with NCI/ADR-RES; > 100 µM (inactive) with OVCAR-3; > 100 µM (inactive) in the experiment on OVCAR-4; 43 µM (inactive) with SF-268. For the same molecule, the GI50 in the experiment on SF-295 is 71 µM (inactive); with SK-MEL-28, > 100 µM (inactive); in the experiment on SK-MEL-2, > 100 µM (inactive); in the experiment with SK-MEL-5 it was 27.8 µM (inactive); in the experiment on SNB-75, 42.1 µM (inactive); in the experiment on SR it was 44.7 µM (inactive). In addition, the GI50 in the experiment with TK-10 was > 100 µM (inactive).
Take `C=CC(C)(C)NC(C(=O)N1CCC[C@H]1c1nc(-c2nc(C(=O)OCC=C(C)C)c(C)o2)c(C)o1)C(C)C` (stereo not given in full): the GI50 is > 100 µM (inactive) in the experiment on BT-549; > 55.2 µM (inactive) in the experiment on CAKI-1; > 84.7 µM (inactive) in the experiment with DU-145; > 52 µM (inactive) in the experiment on HT-29; 47 µM (inactive) in the experiment on MDA-MB-231; > 100 µM (inactive) in the experiment with Malme-3M. The GI50 in the experiment with NCI-H23 was > 100 µM (inactive); in the experiment on NCI-H460, 31.9 µM (inactive); with NCI/ADR-RES, > 55 µM (inactive); in the experiment on OVCAR-3, 46.6 µM (inactive); in the experiment on OVCAR-4, 33.3 µM (inactive); in the experiment with SF-268, > 100 µM (inactive). In addition, the GI50 in the experiment with SF-295 was > 50 µM (inactive); in the experiment on SK-MEL-28 it was > 66.1 µM (inactive); in the experiment with SK-MEL-2 it was > 45.3 µM (inactive); in the experiment on SK-MEL-5 it was 47.1 µM (inactive); with SNB-75 it was 33.3 µM (inactive); in the experiment with SR, 32.2 µM (inactive). The values for the GI50 with TK-10 and in the experiment on UACC-62 were > 57.8 µM (inactive) and 37.8 µM (inactive), respectively.
